Experimental data as given in ChEMBL document CHEMBL3739292, “Synthesis and Biological Evaluation of Polar Functionalities Containing Nitrodihydroimidazooxazoles as Anti-TB Agents” (ACS Med Chem Lett, 2015).
≈ marks a conversion by molar mass, not a printed value.

How the values were obtained:
[1] = test system: Mycobacterium tuberculosis; experiment: Antimicrobial activity against rifamycin-resistant Mycobacterium tuberculosis by resazurin microtiter assay; type: functional
[2] = test system: Mycobacterium tuberculosis; experiment: Antimicrobial activity against multidrug-resistant Mycobacterium tuberculosis by resazurin microtiter assay; type: functional

For `C[C@]1(COc2ccc(S(=O)(=O)N3CCOCC3)cc2)Cn2cc([N+](=O)[O-])nc2O1`, the MIC [1] was 1 µg/mL (≈ 2.36 µM) and the MIC [2] was 2 µg/mL (≈ 4.71 µM).

`C[C@]1(COc2ccc(-n3cc(COc4ccc(OC(F)(F)F)cc4)nn3)cc2)Cn2cc([N+](=O)[O-])nc2O1` gave an MIC [1] of 0.06 µg/mL (≈ 0.113 µM) and an MIC [2] of 0.12 µg/mL (≈ 0.225 µM).

For `COc1c(N2CCNC(C)C2)c(F)cc2c(=O)c(C(=O)O)cn(C3CC3)c12` (centres undefined) [GATIFLOXACIN], the MIC [2] was 0.5 µg/mL (≈ 1.33 µM).

Work on `C[C@]1(COc2ccc(NC(=O)Nc3ccc(Cl)cc3)cc2)Cn2cc([N+](=O)[O-])nc2O1` yielded an MIC [1] of 0.67 µg/mL (≈ 1.51 µM) and an MIC [2] greater than 8 µg/mL.

Work on `COc1ccc(NC(=S)Nc2ccc(OC[C@@]3(C)Cn4cc([N+](=O)[O-])nc4O3)cc2)cc1` yielded an MIC [1] of 2 µg/mL (≈ 4.39 µM) and an MIC [2] greater than 8 µg/mL.

In the case of `C[C@]1(COc2ccc(N3CCC(Oc4ccc(OC(F)(F)F)cc4)CC3)cc2)Cn2cc([N+](=O)[O-])nc2O1`, the MIC [1] is reported as 0.005 µg/mL (≈ 0.00935 µM) and the MIC [2] is reported as 0.02 µg/mL (≈ 0.0374 µM).

`CO[C@H]1/C=C/O[C@@]2(C)Oc3c(C)c(O)c4c(O)c(c(/C=N/N5CCN(C)CC5)c(O)c4c3C2=O)NC(=O)/C(C)=C\C=C\[C@H](C)[C@H](O)[C@@H](C)[C@@H](O)[C@@H](C)[C@H](OC(C)=O)[C@@H]1C` [RIFAMPIN] gave an MIC [1] of 256 µg/mL (≈ 311 µM) and an MIC [2] of 128 µg/mL (≈ 156 µM).

In the case of `CCOc1ccc(NC(=O)Nc2ccc(OC[C@@]3(C)Cn4cc([N+](=O)[O-])nc4O3)cc2)cc1`, the MIC [1] is reported as 1 µg/mL (≈ 2.21 µM) and the MIC [2] is reported as greater than 8 µg/mL.

`C[C@]1(COc2ccc(N3CCN(S(=O)(=O)c4ccc(F)cc4)CC3)cc2)Cn2cc([N+](=O)[O-])nc2O1` showed an MIC [1] of 1 µg/mL (≈ 1.93 µM) and an MIC [2] greater than 8 µg/mL.

`C[C@]1(COc2ccc(S(=O)(=O)N3CCCCC3)cc2)Cn2cc([N+](=O)[O-])nc2O1` gave an MIC [1] of 3.34 µg/mL (≈ 7.91 µM) and an MIC [2] greater than 8 µg/mL.
